Source: patent US20250320213A1, “Nitrogen-Containing Heterocyclic Compounds” (Pfizer Inc., priority 2024, published 2025)
Counter-ions that a name gives are not always drawn. Like-named read-outs stand apart in the source and are kept apart here.

Assays:
STAT6 = target: T1, STAT6 (Homo sapiens, UniProt P42226); test: STAT6 Reporter Luciferase Assay (IL-13 stimulated HaCaT keratinocyte NanoLuc reporter cells); assay type: cell-based
T1 construct: stably transfected HaCaT keratinocyte cell line, which expresses NanoLuc luciferase reporter gene under the transcriptional control of the STAT6 responsive promoter; endogenous in cells; host or cells: HaCaT keratinocyte reporter cell line (stably transfected with a NanoLuc reporter)
T1 sequence (P42226 1-847): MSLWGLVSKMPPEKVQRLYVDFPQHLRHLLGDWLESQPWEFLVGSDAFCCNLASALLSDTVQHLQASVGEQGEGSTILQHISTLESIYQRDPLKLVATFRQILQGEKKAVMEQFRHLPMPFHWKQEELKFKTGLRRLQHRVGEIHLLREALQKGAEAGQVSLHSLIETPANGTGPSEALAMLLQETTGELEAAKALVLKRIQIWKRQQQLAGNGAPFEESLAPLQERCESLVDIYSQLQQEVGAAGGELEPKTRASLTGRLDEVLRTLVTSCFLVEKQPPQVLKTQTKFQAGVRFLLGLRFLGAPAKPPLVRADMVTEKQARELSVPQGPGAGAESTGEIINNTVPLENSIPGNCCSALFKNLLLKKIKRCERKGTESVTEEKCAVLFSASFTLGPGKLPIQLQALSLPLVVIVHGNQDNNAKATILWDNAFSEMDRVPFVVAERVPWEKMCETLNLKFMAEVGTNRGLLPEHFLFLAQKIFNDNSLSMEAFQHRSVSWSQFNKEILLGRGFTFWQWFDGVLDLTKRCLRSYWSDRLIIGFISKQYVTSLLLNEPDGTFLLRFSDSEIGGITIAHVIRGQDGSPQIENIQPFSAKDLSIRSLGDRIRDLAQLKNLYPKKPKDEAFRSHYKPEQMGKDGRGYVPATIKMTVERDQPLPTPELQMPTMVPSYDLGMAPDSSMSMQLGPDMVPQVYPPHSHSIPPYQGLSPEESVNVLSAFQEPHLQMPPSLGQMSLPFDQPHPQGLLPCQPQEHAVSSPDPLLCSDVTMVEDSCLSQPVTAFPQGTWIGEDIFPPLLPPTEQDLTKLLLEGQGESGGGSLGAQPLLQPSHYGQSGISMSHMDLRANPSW
Method in brief: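 HaCaT cells stably carrying a NanoLuc reporter driven by the STAT6-responsive IL-13Ra2 promoter were preincubated with compounds for 2 h at 37 °C in 2% FBS medium. Cells were then stimulated with 0.12 nM IL-13 for 4 h, and luminescence was read after Nano-Glo substrate. Compounds ran as 11-point 4-fold dilutions in duplicate.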

[1] = tested on: CCL17 secretion in peripheral human whole blood; test: Human Whole Blood (HWB) CCL17 TR-FRET Assay (IL-13 stimulated CCL17 secretion); assay type: cell-based; settings: human whole blood, IL-13 stimulated
Method in brief: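 Measured here: CCL17 in serum by TR-FRET (665/615 nm) after overnight (16 h) room-temperature detection. The blood, heparinized and compound-treated for 2 h, received IL-13 at 10 ng/mL final and was cultured 48 h at 37 °C.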

[2] = IL-13 stimulated HaCaT STAT6 NanoLuc reporter cells, read-out: Reporter EC50

Row | Compound | EC50 (STAT6; [2]) | IC50 ([1]; Homo sapiens, 48 h) | EC50 (STAT6; Reporter EC50, IL-13 stimulated HaCaT STAT6 NanoLuc reporter cells) | IC50 ([1]; 48 hours)
1 | CCn1nc(C(=O)NCc2ccc(NC(=O)NC)cc2)c2c1[C@@H](C)CN(c1ncc(N3CCCC3=O)cn1)C2 [Example 482, (S)-1-ethyl-7-methyl-N-(4-(3-methylureido)benzyl)-5-(5-(2-oxopyrrolidin-1-yl)pyrimidin-2-yl)-4,5,6,7-tetrahydro-1H-pyrazolo[4,3-c]pyridine-3-carboxamide] | 7 nM | 25 nM | – | –
2 | CCn1nc(C(=O)NCc2ccc(C(N)=O)cc2)c2c1[C@@H](C)CN(c1ncc(N3CCCC3=O)cn1)C2 [Example 483, (S)-N-(4-carbamoylbenzyl)-1-ethyl-7-methyl-5-(5-(2-oxopyrrolidin-1-yl)pyrimidin-2-yl)-4,5,6,7-tetrahydro-1H-pyrazolo[4,3-c]pyridine-3-carboxamide] | 33 nM | 63 nM | – | –
3 | CCn1nc(C(=O)NCc2ccc(C(=O)NC)cc2)c2c1[C@@H](C)CN(c1ncc(N3CCCC3=O)cn1)C2 [Example 484, (S)-1-ethyl-7-methyl-N-(4-(methylcarbamoyl)benzyl)-5-(5-(2-oxopyrrolidin-1-yl)pyrimidin-2-yl)-4,5,6,7-tetrahydro-1H-pyrazolo[4,3-c]pyridine-3-carboxamide] | 26 nM | 108 nM | – | –
4 | CC(C)n1nc(C(=O)NCc2ccc(NC(=O)N3CCC(OC4CCNCC4)CC3)cc2)c2c1[C@@H](C)CN(c1ccc(C(=O)N(C)C)cc1)C2 [Example 485, (S)-5-(4-(Dimethylcarbamoyl)phenyl)-1-isopropyl-7-methyl-N-(4-(4-(piperidin-4-yloxy)piperidine-1-carboxamido)benzyl)-4,5,6,7-tetrahydro-1H-pyrazolo[4,3-c]pyridine-3-carboxamide hydrochloride] | – | – | 1 nM | 4 nM
5 | CC(C)n1nc(C(=O)NCc2ccc(NC(=O)N(C)C)cc2)c2c1[C@@H](C)CN(c1ncc(N3CCCC3=O)cn1)C2 [Example 486, (S)-N-(4-(3,3-dimethylureido)benzyl)-1-isopropyl-7-methyl-5-(5-(2-oxopyrrolidin-1-yl)pyrimidin-2-yl)-4,5,6,7-tetrahydro-1H-pyrazolo[4,3-c]pyridine-3-carboxamide] | 2 nM | 11 nM | – | –
6 | CC(C)n1nc(C(=O)NCc2ccc(-c3ncc[nH]3)cc2)c2c1[C@@H](C)CN(c1ncc(N3CCCC3=O)cn1)C2 [Example 487, (S)-N-(4-(1H-imidazol-2-yl)benzyl)-1-isopropyl-7-methyl-5-(5-(2-oxopyrrolidin-1-yl)pyrimidin-2-yl)-4,5,6,7-tetrahydro-1H-pyrazolo[4,3-c]pyridine-3-carboxamide] | 2 nM | 16 nM | – | –
7 | CCn1nc(C(=O)NCc2ccc(NC(=O)N(C)C)cc2)c2c1[C@@H](C)CN(c1ncc(N3CCCC3=O)cn1)C2 [Example 488, (S)-N-(4-(3,3-dimethylureido)benzyl)-1-ethyl-7-methyl-5-(5-(2-oxopyrrolidin-1-yl)pyrimidin-2-yl)-4,5,6,7-tetrahydro-1H-pyrazolo[4,3-c]pyridine-3-carboxamide] | 3 nM | 27 nM | – | –
8 | CC(C)n1nc(C(=O)NCc2ccc(C(N)=O)cc2)c2c1[C@@H](C)CN(c1ncc(N3CCCC3=O)cn1)C2 [Example 489, (S)-N-(4-carbamoylbenzyl)-1-isopropyl-7-methyl-5-(5-(2-oxopyrrolidin-1-yl)pyrimidin-2-yl)-4,5,6,7-tetrahydro-1H-pyrazolo[4,3-c]pyridine-3-carboxamide] | 18 nM | 17 nM | – | –
9 | CNC(=O)c1ccc(CNC(=O)c2nn(C(C)C)c3c2CN(c2ncc(N4CCCC4=O)cn2)C[C@@H]3C)cc1 [Example 490, (S)-1-isopropyl-7-methyl-N-(4-(methylcarbamoyl)benzyl)-5-(5-(2-oxopyrrolidin-1-yl)pyrimidin-2-yl)-4,5,6,7-tetrahydro-1H-pyrazolo[4,3-c]pyridine-3-carboxamide] | 13 nM | 50 nM | – | –
10 | CC(C)n1nc(C(=O)NCc2ccc(N)cc2)c2c1[C@@H](C)CN(c1ncc(C(=O)N(C)C)cn1)C2 [Example 491, (S)-N-(4-aminobenzyl)-5-(5-(dimethylcarbamoyl)pyrimidin-2-yl)-1-isopropyl-7-methyl-4,5,6,7-tetrahydro-1H-pyrazolo[4,3-c]pyridine-3-carboxamide] | 7 nM | 34 nM | – | –
11 | CC(C)n1nc(C(=O)NCc2ccc(NC(=O)NCc3ccc(NC(=O)N(C)C)cc3)cc2)c2c1[C@@H](C)CN(c1ncc(C(=O)N(C)C)cn1)C2 [Example 492, (S)-5-(5-(dimethylcarbamoyl)pyrimidin-2-yl)-N-(4-(3-(4-(3,3-dimethylureido)benzyl)ureido)benzyl)-1-isopropyl-7-methyl-4,5,6,7-tetrahydro-1H-pyrazolo[4,3-c]pyridine-3-carboxamide] | 0.5 nM | 4 nM | – | –
12 | CCn1nc(C(=O)NCc2ccc(NC(=O)N(C)C)cc2)c2c1[C@@H](C)CN(c1ncc(C(=O)N3Cc4cccnc4C3)cn1)C2 [Example 495, (S)-5-(5-(6,7-dihydro-5H-pyrrolo[3,4-b]pyridine-6-carbonyl)pyrimidin-2-yl)-N-(4-(3,3-dimethylureido)benzyl)-1-ethyl-7-methyl-4,5,6,7-tetrahydro-1H-pyrazolo[4,3-c]pyridine-3-carboxamide] | 1 nM | 34 nM | – | –
13 | CNC(=O)c1ccc(CNC(=O)c2nn(C(C)C)c3c2CN(c2ncc(C(=O)N4Cc5cccnc5C4)cn2)C[C@@H]3C)cc1 [Example 496, (S)-5-(5-(6,7-dihydro-5H-pyrrolo[3,4-b]pyridine-6-carbonyl)pyrimidin-2-yl)-1-isopropyl-7-methyl-N-(4-(methylcarbamoyl)benzyl)-4,5,6,7-tetrahydro-1H-pyrazolo[4,3-c]pyridine-3-carboxamide] | 4 nM | 16 nM | – | –
14 | CCOC(=O)Nc1ccc(CNC(=O)c2nn(C(C)C)c3c2CN(c2ccc(C(=O)N(C)C)cn2)C[C@@H]3C)cc1 [Example 497, ethyl (S)-(4-((5-(5-(dimethylcarbamoyl)pyridin-2-yl)-1-isopropyl-7-methyl-4,5,6,7-tetrahydro-1H-pyrazolo[4,3-c]pyridine-3-carboxamido)methyl)phenyl)carbamate] | 1 nM | 16 nM | – | –
15 | CC(C)n1nc(C(=O)NCc2ccc(NC(=O)N(C)C)cc2)c2c1[C@@H](C)CN(c1ncc(C(=O)O)cn1)C2 [Example 498, (S)-2-(3-((4-(3,3-Dimethylureido)benzyl)carbamoyl)-1-isopropyl-7-methyl-1,4,6,7-tetrahydro-5H-pyrazolo[4,3-c]pyridin-5-yl)pyrimidine-5-carboxylic acid] | 133 nM | 3440 nM | – | –
16 | CC(C)n1nc(C(=O)NCc2ccc(NC(=O)NCc3ccc(NC(=O)N(C)C)cc3)cc2)c2c1[C@@H](C)CN(c1ccc(C(=O)N(C)C)cn1)C2 [Example 499, (S)-5-(5-(dimethylcarbamoyl)pyridin-2-yl)-N-(4-(3-(4-(3,3-dimethylureido)benzyl)ureido)benzyl)-1-isopropyl-7-methyl-4,5,6,7-tetrahydro-1H-pyrazolo[4,3-c]pyridine-3-carboxamide] | 0.3 nM | 6 nM | – | –
17 | CC(C)n1nc(C(=O)NCc2ccc(NC(=O)N(C)C)cc2)c2c1[C@@H](C)CN(c1ncc(C(=O)NCc3ccc(NC(=O)N(C)C)cc3)cn1)C2 [Example 500, (S)-N-(4-(3,3-dimethylureido)benzyl)-5-(5-((4-(3,3-dimethylureido)benzyl)carbamoyl)pyrimidin-2-yl)-1-isopropyl-7-methyl-4,5,6,7-tetrahydro-1H-pyrazolo[4,3-c]pyridine-3-carboxamide] | 11 nM | 104 nM | – | –
18 | CC(C)n1nc(C(=O)NCc2ccc(NC(=O)N(C)C)cc2)c2c1[C@@H](C)CN(c1ccc(C(=O)NCc3ccc(NC(=O)N(C)C)cc3)cn1)C2 [Example 501, (S)-N-(4-(3,3-dimethylureido)benzyl)-5-(5-((4-(3,3-dimethylureido)benzyl)carbamoyl)pyridin-2-yl)-1-isopropyl-7-methyl-4,5,6,7-tetrahydro-1H-pyrazolo[4,3-c]pyridine-3-carboxamide] | 7 nM | 50 nM | – | –
